From PubChem BioAssay (NCI)
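Tested at 5 concentrations; 48 h exposure; 96-well plates; endpoints linearly interpolated, else capped at highest concentration. GI50 marks 50% less growth. The concentration for full growth arrest is given as TGI.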

Legend:
Test in all cases: DTP human tumour cell line panel, 48 h
MDA-MB-468 breast = system: MDA-MB-468 breast
DU-145 prostate = system: DU-145 prostate
OVCAR-4 ovarian = system: OVCAR-4 ovarian
NCI-H226 lung = system: NCI-H226 lung
U251 CNS = system: U251 CNS
A549 NSCLC = system: A549 NSCLC
SK-MEL-2 melanoma = system: SK-MEL-2 melanoma
A498 renal = system: A498 renal
SK-OV-3 ovarian = system: SK-OV-3 ovarian
ACHN renal = system: ACHN renal
SK-MEL-28 melanoma = system: SK-MEL-28 melanoma
COLO 205 colon = system: COLO 205 colon
CCRF-CEM leukemia = system: CCRF-CEM leukemia
SR leukemia = system: SR leukemia
HCT-15 colon = system: HCT-15 colon
SW-620 colon = system: SW-620 colon
SF-268 CNS = system: SF-268 CNS
SF-295 CNS = system: SF-295 CNS
LOX IMVI melanoma = system: LOX IMVI melanoma
UACC-257 melanoma = system: UACC-257 melanoma
MDA-MB-231 breast = system: MDA-MB-231 breast
HCC-2998 colon = system: HCC-2998 colon
MDA-MB-435 = system: MDA-MB-435
HOP-92 NSCLC = system: HOP-92 NSCLC
CAKI-1 renal = system: CAKI-1 renal
K-562 leukemia = system: K-562 leukemia
SF-539 CNS = system: SF-539 CNS
MALME-3M melanoma = system: MALME-3M melanoma
T-47D breast = system: T-47D breast
RPMI-8226 leukemia = system: RPMI-8226 leukemia
NCI-H460 lung = system: NCI-H460 lung
TK-10 renal = system: TK-10 renal
HL-60(TB) leukemia = system: HL-60(TB) leukemia
OVCAR-3 ovarian = system: OVCAR-3 ovarian
UO-31 renal = system: UO-31 renal
RXF 393 renal = system: RXF 393 renal
IGROV1 ovarian = system: IGROV1 ovarian
HCT-116 colon = system: HCT-116 colon
EKVX NSCLC = system: EKVX NSCLC
NCI-H23 lung = system: NCI-H23 lung
BT-549 breast = system: BT-549 breast
786-0 renal = system: 786-0 renal
OVCAR-8 ovarian = system: OVCAR-8 ovarian
KM12 colon = system: KM12 colon
NCI-H522 lung = system: NCI-H522 lung
SK-MEL-5 melanoma = system: SK-MEL-5 melanoma
MCF7 breast = system: MCF7 breast
OVCAR-5 ovarian = system: OVCAR-5 ovarian
SNB-19 CNS = system: SNB-19 CNS
SN12C renal = system: SN12C renal
SNB-75 CNS = system: SNB-75 CNS
HS 578T breast = system: HS 578T breast
HOP-62 NSCLC = system: HOP-62 NSCLC
PC-3 prostate = system: PC-3 prostate
MOLT-4 leukemia = system: MOLT-4 leukemia
UACC-62 melanoma = system: UACC-62 melanoma
M14 melanoma = system: M14 melanoma
HT29 colon = system: HT29 colon

CC(C)c1nc(N(C)S(C)(=O)=O)nc(-c2ccc(F)cc2)c1/C=C/[C@@H](O)C[C@@H](O)CC(=O)O
GI50 (MDA-MB-468 breast): 18.5 µM | TGI (MDA-MB-468 breast): 69.3 µM

CCN1CCN(c2cc(C)nc(N(CCCNc3ccnc4cc(Cl)ccc34)Cc3ccc4c(c3)OCO4)n2)CC1
GI50 (MDA-MB-468 breast): 1.82 µM | TGI (MDA-MB-468 breast): 4.25 µM

CCCCCN(CCCCC)CC(O)c1cc(Cl)ccc1OC (stereo unspecified)
GI50 (MDA-MB-468 breast): 9.71 µM | TGI (MDA-MB-468 breast): 23.1 µM

CCOC(=O)C1=C(N)N(c2ccccc2)C2=C(C(=O)CC(C)(C)C2)C1c1ccc(Cl)cc1Cl (stereo unspecified)
GI50 (DU-145 prostate): 67.1 µM | TGI (DU-145 prostate): > 100 µM | GI50 (OVCAR-4 ovarian): 28.3 µM | TGI (OVCAR-4 ovarian): > 100 µM | GI50 (NCI-H226 lung): 23.4 µM | TGI (NCI-H226 lung): > 100 µM | GI50 (U251 CNS): 24.6 µM | TGI (U251 CNS): > 100 µM | GI50 (A549 NSCLC): 18.8 µM | TGI (A549 NSCLC): > 100 µM | GI50 (SK-MEL-2 melanoma): 17 µM | TGI (SK-MEL-2 melanoma): 58 µM | GI50 (A498 renal): 45.4 µM | TGI (A498 renal): > 100 µM | GI50 (SK-OV-3 ovarian): 33.5 µM | TGI (SK-OV-3 ovarian): > 100 µM | GI50 (ACHN renal): 18.3 µM | TGI (ACHN renal): > 100 µM | GI50 (SK-MEL-28 melanoma): 66.7 µM | TGI (SK-MEL-28 melanoma): > 100 µM | GI50 (COLO 205 colon): 20.6 µM | TGI (COLO 205 colon): 91.3 µM | GI50 (CCRF-CEM leukemia): 31 µM | TGI (CCRF-CEM leukemia): > 100 µM | GI50 (SR leukemia): 14.7 µM | TGI (SR leukemia): > 100 µM | GI50 (HCT-15 colon): 15.2 µM | TGI (HCT-15 colon): > 100 µM | GI50 (SW-620 colon): 29 µM | TGI (SW-620 colon): > 100 µM | GI50 (SF-268 CNS): 53.2 µM | TGI (SF-268 CNS): > 100 µM | GI50 (SF-295 CNS): 20.3 µM | TGI (SF-295 CNS): > 100 µM | GI50 (LOX IMVI melanoma): 32.4 µM | TGI (LOX IMVI melanoma): > 100 µM | GI50 (UACC-257 melanoma): 28.8 µM | TGI (UACC-257 melanoma): > 100 µM | GI50 (MDA-MB-231 breast): 33.5 µM | TGI (MDA-MB-231 breast): > 100 µM | GI50 (HCC-2998 colon): 27.7 µM | TGI (HCC-2998 colon): > 100 µM | GI50 (MDA-MB-435): 32.1 µM | TGI (MDA-MB-435): > 100 µM | GI50 (HOP-92 NSCLC): 3.89 µM | TGI (HOP-92 NSCLC): 65.5 µM | GI50 (CAKI-1 renal): 6.82 µM | TGI (CAKI-1 renal): > 100 µM | GI50 (K-562 leukemia): 7.23 µM | TGI (K-562 leukemia): > 100 µM | GI50 (SF-539 CNS): 37.8 µM | TGI (SF-539 CNS): > 100 µM | GI50 (MALME-3M melanoma): 29.3 µM | TGI (MALME-3M melanoma): > 100 µM | GI50 (T-47D breast): 10.4 µM | TGI (T-47D breast): > 100 µM | GI50 (RPMI-8226 leukemia): 7.07 µM | TGI (RPMI-8226 leukemia): > 100 µM | GI50 (NCI-H460 lung): 13.9 µM | TGI (NCI-H460 lung): > 100 µM | GI50 (TK-10 renal): 56.3 µM | TGI (TK-10 renal): > 100 µM | GI50 (HL-60(TB) leukemia): 5.95 µM | TGI (HL-60(TB) leukemia): > 100 µM | GI50 (OVCAR-3 ovarian): 26.2 µM | TGI (OVCAR-3 ovarian): > 100 µM | GI50 (UO-31 renal): 11.5 µM | TGI (UO-31 renal): > 100 µM | GI50 (RXF 393 renal): 13.8 µM | TGI (RXF 393 renal): > 100 µM | GI50 (IGROV1 ovarian): 79.7 µM | TGI (IGROV1 ovarian): > 100 µM | GI50 (HCT-116 colon): 7.89 µM | TGI (HCT-116 colon): > 100 µM | GI50 (EKVX NSCLC): 26.2 µM | TGI (EKVX NSCLC): > 100 µM | GI50 (NCI-H23 lung): 25.1 µM | TGI (NCI-H23 lung): > 100 µM | GI50 (BT-549 breast): 45.8 µM | TGI (BT-549 breast): > 100 µM | GI50 (786-0 renal): 42.4 µM | TGI (786-0 renal): > 100 µM | GI50 (OVCAR-8 ovarian): 37.2 µM | TGI (OVCAR-8 ovarian): > 100 µM | GI50 (KM12 colon): 23.6 µM | TGI (KM12 colon): > 100 µM | GI50 (NCI-H522 lung): 22.2 µM | TGI (NCI-H522 lung): > 100 µM | GI50 (SK-MEL-5 melanoma): 12.4 µM | TGI (SK-MEL-5 melanoma): 25.6 µM | GI50 (MCF7 breast): 17.7 µM | TGI (MCF7 breast): > 100 µM | GI50 (OVCAR-5 ovarian): 72.6 µM | TGI (OVCAR-5 ovarian): > 100 µM | GI50 (SNB-19 CNS): 29.2 µM | TGI (SNB-19 CNS): > 100 µM | GI50 (SN12C renal): 30.8 µM | TGI (SN12C renal): > 100 µM | GI50 (SNB-75 CNS): 53.3 µM | TGI (SNB-75 CNS): > 100 µM | GI50 (MDA-MB-468 breast): 6.83 µM | TGI (MDA-MB-468 breast): 53.8 µM | GI50 (HS 578T breast): 76.8 µM | TGI (HS 578T breast): > 100 µM | GI50 (HOP-62 NSCLC): 48.8 µM | TGI (HOP-62 NSCLC): > 100 µM | GI50 (PC-3 prostate): 4.14 µM | TGI (PC-3 prostate): > 100 µM | GI50 (MOLT-4 leukemia): 9.56 µM | TGI (MOLT-4 leukemia): > 100 µM | GI50 (UACC-62 melanoma): 12.6 µM | TGI (UACC-62 melanoma): > 100 µM | GI50 (M14 melanoma): 34.8 µM | TGI (M14 melanoma): > 100 µM | GI50 (HT29 colon): 19.8 µM | TGI (HT29 colon): > 100 µM

Cc1ncc(C(=O)Nc2ccc(CN3CCN(C)CC3)c(C(F)(F)F)c2)cc1C#Cc1ccc(N)nc1
GI50 (MDA-MB-468 breast): 0.368 µM | TGI (MDA-MB-468 breast): 2.12 µM

CN1CCN(CCOc2ccc(-c3cnc4c(-c5cccc(F)c5)cnn4c3)cc2)CC1
GI50 (MDA-MB-468 breast): 1.67 µM | TGI (MDA-MB-468 breast): 3.25 µM

O=C1C2=C(C(=O)c3cnccc31)C1C=CC2CC1 (stereo unspecified)
GI50 (MDA-MB-468 breast): 0.185 µM | TGI (MDA-MB-468 breast): 0.416 µM

Cc1cc(Nc2nc(C(=O)Nc3ccccc3)nc3ccccc23)n[nH]1
GI50 (MDA-MB-468 breast): 9.15 µM | TGI (MDA-MB-468 breast): > 25 µM

NS(=O)(=O)c1ccc(N=Nc2c(O)[nH]c3ccc(C(=O)NCc4ccncc4)cc23)cc1
GI50 (MDA-MB-468 breast): > 25 µM | TGI (MDA-MB-468 breast): > 25 µM

CN1CCN(Cc2ccc(NC(=O)c3cncc(C#Cc4cnc(N)cc4C#N)c3)cc2C(F)(F)F)CC1
GI50 (MDA-MB-468 breast): 2.01 µM | TGI (MDA-MB-468 breast): 5.3 µM

O=C(Nc1ccc(-n2ccc3c(NC(=O)c4ccccc4)ncnc32)cc1)c1cccc(C(F)(F)F)c1
GI50 (MDA-MB-468 breast): 4.05 µM | TGI (MDA-MB-468 breast): 20.4 µM
